Measurements: patent US12528802B2, “Heterocyclic compound” (Takeda Pharmaceutical Company Limited, priority 2019, dated 2026)

These compounds were tested against T1, glucosylceramide synthase (Homo sapiens, UniProt Q16739) (assay: Glucosylceramide synthase (GCS) enzyme assay, microsome fraction, C8 glucosylceramide quantified by Rapidfire MS/MS). Settings: test compound 10 μM; 1.7 μM UDP-glucose, 3 μM C8 ceramide; room temperature 60 min.
T1 construct: made in house; host or cells: Expi293F cells (transient expression, pcDNA3.3-TOPO vector); microsome fraction used as enzyme source
T1 sequence (Q16739 1-394): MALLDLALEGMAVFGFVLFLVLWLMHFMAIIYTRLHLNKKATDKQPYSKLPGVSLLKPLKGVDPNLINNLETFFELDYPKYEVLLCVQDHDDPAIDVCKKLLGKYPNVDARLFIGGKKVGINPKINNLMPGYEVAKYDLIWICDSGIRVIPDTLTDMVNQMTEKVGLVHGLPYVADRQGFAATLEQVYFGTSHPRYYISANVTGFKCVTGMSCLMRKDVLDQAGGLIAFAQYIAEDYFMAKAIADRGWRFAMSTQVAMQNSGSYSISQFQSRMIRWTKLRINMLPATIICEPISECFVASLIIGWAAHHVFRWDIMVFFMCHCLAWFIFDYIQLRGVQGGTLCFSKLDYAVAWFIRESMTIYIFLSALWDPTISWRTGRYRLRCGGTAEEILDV
Type: biochemical
In short: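 Test compound, 10 μM final, was run against human GCS from transfected Expi293F microsome fractions, using substrate solution of 6 μM C8 ceramide (in DOPC liposomes) plus 3.4 μM UDP-glucose, pH 7.5 Tris buffer, 60 min, room temperature. Product C8 glucosylceramide measured by Rapidfire MS/MS against an internal standard, % inhibition referenced to no-enzyme and DMSO wells.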
With Cc1cncc(OCC(F)(F)F)c1-c1nccc2c1CN(c1ccc(OC(F)F)cc1)C2=O [Example 198, 2-[4-(difluoromethoxy)phenyl]-4-[3-methyl-5-(2,2,2-trifluoroethoxy)pyridin-4-yl]-2,3-dihydro-1H-pyrrolo[3,4-c]pyridin-1-one] the “GCS enzyme inhibitory rate at 10 μM (%) (% of control)” value was 99%.

Same assay, conditions: test compound 10 μM; 1.7 μM UDP-glucose, 3 μM C8 ceramide; room temperature 60 min; read-out: GCS enzyme inhibitory rate at 10 μM (%) (% of control)
With O=C1c2ccnc(-c3ccccc3OCC(F)(F)F)c2CN1c1ccc(O[C@H]2CCOC2)cc1 [Example 188, 2-(4-{[(3S)-oxolan-3-yl]oxy}phenyl)-4-[2-(2,2,2-trifluoroethoxy)phenyl]-2,3-dihydro-1H-pyrrolo[3,4-c]pyridin-1-one] the inhibition at 10 µM was 100%.
CCC(=O)c1ccc(N2Cc3c(ccnc3-c3ccc(F)cc3OCC(F)(F)F)C2=O)cc1 [Example 189, 4-[4-fluoro-2-(2,2,2-trifluoroethoxy)phenyl]-2-(4-propanoylphenyl)-2,3-dihydro-1H-pyrrolo[3,4-c]pyridin-1-one] was tested, and the inhibition at 10 µM was 94%.
For CCC(=O)c1ccc(N2Cc3c(ccnc3-c3ccccc3OCC(F)(F)F)C2=O)cc1 [Example 190, 2-(4-propanoylphenyl)-4-[2-(2,2,2-trifluoroethoxy)phenyl]-2,3-dihydro-1H-pyrrolo[3,4-c]pyridin-1-one], the inhibition at 10 µM was 98%.
O=C1c2ccnc(-c3ccccc3OCC(F)(F)F)c2CN1c1ccc(C2(O)CCC2)cc1 [Example 191, 2-[4-(1-hydroxycyclobutyl)phenyl]-4-[2-(2,2,2-trifluoroethoxy)phenyl]-2,3-dihydro-1H-pyrrolo[3,4-c]pyridin-1-one] gave an inhibition at 10 µM of 100%.
CC(C)(O)c1ccc(N2Cc3c(ncnc3-c3ccc(F)cc3OCC(F)(F)F)C2=O)cc1 [Example 192, 4-[4-fluoro-2-(2,2,2-trifluoroethoxy)phenyl]-6-[4-(2-hydroxypropan-2-yl)phenyl]-5,6-dihydro-7H-pyrrolo[3,4-d]pyrimidin-7-one] gave an inhibition at 10 µM of 88%.
Fc1ccc(N2Cc3cnn(-c4ccccc4OCC(F)(F)F)c3C2)cc1 [Example 193, 5-(4-fluorophenyl)-1-[2-(2,2,2-trifluoroethoxy)phenyl]-1,4,5,6-tetrahydropyrrolo[3,4-c]pyrazole] showed an inhibition at 10 µM of 98%.
For O=C1c2ccnc(-c3ccc(F)cc3OCC(F)(F)F)c2CN1c1ccc(OCC2(F)COC2)cc1 [Example 194, 2-{4-[(3-fluorooxetan-3-yl)methoxy]phenyl}-4-[4-fluoro-2-(2,2,2-trifluoroethoxy)phenyl]-2,3-dihydro-1H-pyrrolo[3,4-c]pyridin-1-one], the inhibition at 10 µM was 98%.
Work on CC(C)(O)COc1ccc(N2Cc3c(ccnc3-c3ccccc3OCC(F)(F)F)C2=O)cc1 [Example 195, 2-[4-(2-hydroxy-2-methylpropoxy)phenyl]-4-[2-(2,2,2-trifluoroethoxy)phenyl]-2,3-dihydro-1H-pyrrolo[3,4-c]pyridin-1-one] yielded an inhibition at 10 µM of 100%.
Cn1cc2c(c(-c3ccc(F)cc3OCC(F)(F)F)c1=O)CN(c1ccc(OC(F)F)cc1)C2=O [Example 196, 2-[4-(difluoromethoxy)phenyl]-7-[4-fluoro-2-(2,2,2-trifluoroethoxy)phenyl]-5-methyl-1H-pyrrolo[3,4-c]pyridine-3,6(2H,5H)-dione] showed an inhibition at 10 µM of 100%.
In the case of CC(C)(O)c1ccc(N2Cc3c(ccnc3-c3ccc(F)cc3OCC(F)(F)F)C2=O)cn1 [Example 197, 4-[4-fluoro-2-(2,2,2-trifluoroethoxy)phenyl]-2-[6-(2-hydroxypropan-2-yl)pyridin-3-yl]-2,3-dihydro-1H-pyrrolo[3,4-c]pyridin-1-one], the inhibition at 10 µM is reported as 88%.
For O=C1c2ccnc(-c3ccc(F)cc3OCC(F)(F)F)c2CN1c1ccc(C2(O)COC2)cn1 [Example 199, 4-[4-fluoro-2-(2,2,2-trifluoroethoxy)phenyl]-2-[5-(3-hydroxyoxetan-3-yl)pyridin-2-yl]-2,3-dihydro-1H-pyrrolo[3,4-c]pyridin-1-one], the inhibition at 10 µM was 91%.
Compound CC(C)(O)c1ccc(N2Cc3c(ncnc3-c3ccccc3OCC(F)(F)F)C2=O)cc1 [Example 200, 6-[4-(2-hydroxypropan-2-yl)phenyl]-4-[2-(2,2,2-trifluoroethoxy)phenyl]-5,6-dihydro-7H-pyrrolo[3,4-d]pyrimidin-7-one] has an inhibition at 10 µM of 95%.
Cc1cccc(OCC(F)(F)F)c1-c1nccc2c1CN(c1ccc(S(=O)(=O)C(F)F)cc1)C2=O [Example 201, 2-[4-(difluoromethanesulfonyl)phenyl]-4-[2-methyl-6-(2,2,2-trifluoroethoxy)phenyl]-2,3-dihydro-1H-pyrrolo[3,4-c]pyridin-1-one] was tested, and the inhibition at 10 µM was 99%.
Work on O=C1c2ccnc(-c3ccc(F)cc3OCC(F)(F)F)c2CN1c1cnn(CC2(F)COC2)c1 [Example 202, 2-{1-[(3-fluorooxetan-3-yl)methyl]-1H-pyrazol-4-yl}-4-[4-fluoro-2-(2,2,2-trifluoroethoxy)phenyl]-2,3-dihydro-1H-pyrrolo[3,4-c]pyridin-1-one] yielded an inhibition at 10 µM of 95%.
O=C1c2ccnc(-c3ccccc3OCC(F)(F)F)c2CN1c1ccc(C2(O)CCC2)nc1 [Example 203, 2-[6-(1-hydroxycyclobutyl)pyridin-3-yl]-4-[2-(2,2,2-trifluoroethoxy)phenyl]-2,3-dihydro-1H-pyrrolo[3,4-c]pyridin-1-one] gave an inhibition at 10 µM of 98%.
In the case of CC1(Oc2ccc(N3Cc4c(ccnc4-c4ccccc4OCC(F)(F)F)C3=O)cn2)COC1 [Example 204, 2-{6-[(3-methyloxetan-3-yl)oxy]pyridin-3-yl}-4-[2-(2,2,2-trifluoroethoxy)phenyl]-2,3-dihydro-1H-pyrrolo[3,4-c]pyridin-1-one], the inhibition at 10 µM is reported as 97%.
Cn1nc(-c2ccccc2OCC(F)(F)F)c2c1CN(c1ccc(F)cc1)C2 [Example 205, 5-(4-fluorophenyl)-1-methyl-3-[2-(2,2,2-trifluoroethoxy)phenyl]-1,4,5,6-tetrahydropyrrolo[3,4-c]pyrazole] was tested, and the inhibition at 10 µM was 83%.
Cn1nc2c(c1-c1ccccc1OCC(F)(F)F)CN(c1ccc(F)cc1)C2 [Example 206, 5-(4-fluorophenyl)-2-methyl-3-[2-(2,2,2-trifluoroethoxy)phenyl]-2,4,5,6-tetrahydropyrrolo[3,4-c]pyrazole] showed an inhibition at 10 µM of 66%.
Work on CS(=O)(=O)c1ccc(N2Cc3cnn(-c4ccccc4OCC(F)(F)F)c3C2)cc1 [Example 207, 5-[4-(methanesulfonyl)phenyl]-1-[2-(2,2,2-trifluoroethoxy)phenyl]-1,4,5,6-tetrahydropyrrolo[3,4-c]pyrazole] yielded an inhibition at 10 µM of 99%.
O=C1c2ccnc(-c3ccc(F)cc3OCC(F)(F)F)c2CN1c1ccc(C2(O)CCOCC2)cc1 [Example 208, 4-[4-fluoro-2-(2,2,2-trifluoroethoxy)phenyl]-2-[4-(4-hydroxyoxatan-4-yl)phenyl]-2,3-dihydro-1H-pyrrolo[3,4-c]pyridin-1-one] showed an inhibition at 10 µM of 99%.
Work on O=C1C2=C(CN1c1ccc(OCC(F)(F)F)cc1)C(c1ccc(F)cc1OCC(F)(F)F)=NCCO2 [Example 209, 5-[4-fluoro-2-(2,2,2-trifluoroethoxy)phenyl]-7-[4-(2,2,2-trifluoroethoxy)phenyl]-2,3,6,7-tetrahydro-8H-pyrrolo[3,4-f][1,4]oxazepin-8-one] yielded an inhibition at 10 µM of 98%.
O=C1c2ccnc(-c3ccncc3OCC(F)(F)F)c2CN1c1ccc(C2(O)CCC2)cc1 [Example 210, 2-[4-(1-hydroxycyclobutyl)phenyl]-4-[3-(2,2,2-trifluoroethoxy)pyridin-4-yl]-2,3-dihydro-1H-pyrrolo[3,4-c]pyridin-1-one] showed an inhibition at 10 µM of 99%.
For O=C1CCCN1Cc1ccc(N2Cc3c(ccnc3-c3ccc(F)cc3OCC(F)(F)F)C2=O)cc1 [Example 211, 4-[4-fluoro-2-(2,2,2-trifluoroethoxy)phenyl]-2-{4-[(2-oxopyrrolidin-1-yl)methyl]phenyl}-2,3-dihydro-1H-pyrrolo[3,4-c]pyridin-1-one], the inhibition at 10 µM was 81%.
CC(C)(O)c1ccc(N2Cc3c(ccnc3-c3ccc(F)cc3OCC(F)(F)F)C2=O)cc1F [Example 212, 2-[3-fluoro-4-(2-hydroxypropan-2-yl)phenyl]-4-[4-fluoro-2-(2,2,2-trifluoroethoxy)phenyl]-2,3-dihydro-1H-pyrrolo[3,4-c]pyridin-1-one] gave an inhibition at 10 µM of 99%.
With O=C1c2ccnc(-c3ccc(F)cc3OCC(F)(F)F)c2CN1c1cnn(CC2(F)CC2)c1 [Example 213, 2-{1-[(1-fluorocyclopropyl)methyl]-1H-pyrazol-4-yl}-4-[4-fluoro-2-(2,2,2-trifluoroethoxy)phenyl]-2,3-dihydro-1H-pyrrolo[3,4-c]pyridin-1-one] the inhibition at 10 µM was 94%.
O=C1c2ccnc(-c3ccccc3OCC(F)(F)F)c2CN1c1ccc(C2(F)COC2)cc1 [Example 214, 2-[4-(3-fluorooxetan-3-yl)phenyl]-4-[2-(2,2,2-trifluoroethoxy)phenyl]-2,3-dihydro-1H-pyrrolo[3,4-c]pyridin-1-one] was tested, and the inhibition at 10 µM was 100%.
With CS(=O)(=O)c1ccc(N2Cc3cnn(-c4ccccc4OCC(F)(F)F)c3C2)nc1 [Example 215, 5-[5-(methanesulfonyl)pyridin-2-yl]-1-[2-(2,2,2-trifluoroethoxy)phenyl]-1,4,5,6-tetrahydropyrrolo[3,4-c]pyrazole] the inhibition at 10 µM was 93%.
